From ChEMBL document CHEMBL1781945, “A new series of 3-phenylcoumarins as potent and selective MAO-B inhibitors” (Bioorg Med Chem Lett, 2009)

How the values were obtained:
[1] = species on record: Homo sapiens; assay: Selectivity index, ratio of IC50 for human recombinant MAOA to IC50 for human recombinant MAOB
[2] = target: T1, Amine oxidase [flavin-containing] B (Homo sapiens, UniProt P27338); assay: Inhibition of human recombinant MAOB expressed in BTI insect cells using p-tyramine substrate by fluorometric method
T1 sequence (P27338 whole entry): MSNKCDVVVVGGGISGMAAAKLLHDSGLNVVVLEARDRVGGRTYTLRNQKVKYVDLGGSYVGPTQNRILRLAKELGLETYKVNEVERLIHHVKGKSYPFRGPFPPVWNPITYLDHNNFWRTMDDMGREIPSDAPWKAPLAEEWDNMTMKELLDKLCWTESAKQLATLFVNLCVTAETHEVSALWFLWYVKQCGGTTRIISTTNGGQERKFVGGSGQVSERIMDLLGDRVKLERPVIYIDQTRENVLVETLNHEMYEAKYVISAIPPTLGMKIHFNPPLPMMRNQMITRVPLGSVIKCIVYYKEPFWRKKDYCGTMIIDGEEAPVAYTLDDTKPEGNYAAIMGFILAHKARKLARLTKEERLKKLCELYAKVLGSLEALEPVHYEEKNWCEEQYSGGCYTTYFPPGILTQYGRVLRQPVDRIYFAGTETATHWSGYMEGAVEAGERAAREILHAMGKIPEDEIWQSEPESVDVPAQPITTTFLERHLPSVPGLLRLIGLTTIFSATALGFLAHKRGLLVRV

[3] = target: T2, Amine oxidase [flavin-containing] A (Homo sapiens, UniProt P21397); assay: Inhibition of human recombinant MAOA expressed in BTI insect cells at 100 uM using p-tyramine substrate by fluorometric method
T2 sequence (P21397 whole entry): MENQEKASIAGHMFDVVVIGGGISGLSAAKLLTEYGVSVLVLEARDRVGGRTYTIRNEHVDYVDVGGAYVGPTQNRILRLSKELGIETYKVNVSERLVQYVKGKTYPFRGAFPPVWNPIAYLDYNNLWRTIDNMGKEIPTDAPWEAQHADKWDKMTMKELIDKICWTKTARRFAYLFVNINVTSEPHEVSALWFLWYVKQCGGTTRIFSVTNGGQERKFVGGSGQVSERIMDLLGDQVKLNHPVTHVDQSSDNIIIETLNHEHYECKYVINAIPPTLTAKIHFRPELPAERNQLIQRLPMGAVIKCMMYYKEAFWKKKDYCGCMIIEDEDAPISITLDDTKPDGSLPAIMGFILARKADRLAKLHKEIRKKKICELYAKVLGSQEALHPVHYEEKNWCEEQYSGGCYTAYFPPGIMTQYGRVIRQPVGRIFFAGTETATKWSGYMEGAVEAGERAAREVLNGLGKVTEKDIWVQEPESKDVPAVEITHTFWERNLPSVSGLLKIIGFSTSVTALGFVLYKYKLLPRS

Ratio IC50 [1]	IC50 [2]	inhibition (INH) [3]	Structure (SMILES)
> 623	161 nM	Not Active	COc1cc(-c2cc3cc(C)ccc3oc2=O)cc(OC)c1OC
> 352	284 nM	Not Active	Cc1ccc2oc(=O)c(-c3ccccc3)cc2c1
> 11100	8.98 nM	Not Active	COc1cc(OC)cc(-c2cc3cc(C)ccc3oc2=O)c1
> 7660	13.1 nM	Not Active	COc1ccc(-c2cc3cc(C)ccc3oc2=O)cc1
